Among the data in US8507493B2 (AbbVie Inc., priority 2009, dated 2013) are Ki values, retold here.

The target of this experiment is T1, human 11β-HSD1 (Homo sapiens, UniProt P28845).
T1 construct: truncated (24-287aa) human 11β-HSD1 enzyme; made in house; host or cells: E. coli (lysate, not purified)
The experiment is described as follows: Human 11β-HSD1 enzymatic SPA assay. The class given is biochemical. Particulars: truncated (24-287aa) human 11β-HSD1, apparent Ki from IC50 by Cheng-Prusoff. The protocol:
The ability of test compounds to inhibit human 11β-HSD1 enzymatic activity in vitro was evaluated in a Scintillation Proximity Assay (SPA). Tritiated-cortisone substrate, NADPH cofactor and titrated compound were incubated with truncated (24-287aa) human 11β-HSD1 enzyme at room temperature to allow the conversion to cortisol to occur. The reaction was stopped by adding a non-specific 11β-HSD inhibitor, glycyrrhetinic acid. The tritiated cortisol was captured by a mixture of an anti-cortisol monoclonal antibody and SPA beads coated with anti-mouse antibodies. The reaction plate was shaken at room temperature and the radiolabel bound to SPA beads was then measured on a scintillation counter. The 11β-HSD1 assay was carried out in 96-well microtiter plates in a total volume of […]. To start the assay, 188 μL of master mix which contained 75 nM ^3H-cortisone, 100 nM cortisone and 181 μM NADPH was added to the wells. In order to drive the reaction in the 11β-reductase direction, 1 mM glucose-6-phosphate (G-6-P) and 1 U/mL G-6-P dehydrogenase were also added as a NADPH generating system. Solid compound was dissolved in dimethyl sulfoxide to make a 10 mM stock followed by a subsequent 10-fold serial dilution with dimethyl sulfoxide. Each compound solution in dimethyl sulfoxide was 10-fold diluted in Tris/EDTA buffer (pH 7.4). 22 μL of titrated compound were then added in duplicate to the substrate. Reactions were initiated by the addition of 10 μL of 0.1 mg/mL E. coli lysates overexpressing 11β-HSD1 enzyme. After shaking and incubating plates for 30 minutes at room temperature, reactions were stopped by adding 10 μL of 1 mM glycyrrhetinic acid. The product, tritiated cortisol, was captured by adding 10 μL of 1 μM monoclonal mouse anti-cortisol antibodies and 50 μL of SPA beads coated with anti-mouse antibodies. After shaking for 30 minutes, plates were read in a Microbeta scintillation counter. Percent inhibition was calculated based on the background and the maximal signal. Wells that contained substrate without compound or enzyme were used as the background, while the wells that contained substrate and enzyme without any compound were considered as maximal signal. Percent of inhibition of each compound was calculated relative to the maximal signal and IC50 curves were generated. Assuming competitive inhibition the Cheng-Prusoff equation was used to calculate apparent Ki values from the IC50 values. This assay was applied to 11β-HSD2 as well, whereby 6 nM tritiated cortisol and 250 uM NAD^+ were used as substrate and cofactor, respectively.

Where only a bound is given, the exact number is not on record here.

T1 sequence (P28845 24-287): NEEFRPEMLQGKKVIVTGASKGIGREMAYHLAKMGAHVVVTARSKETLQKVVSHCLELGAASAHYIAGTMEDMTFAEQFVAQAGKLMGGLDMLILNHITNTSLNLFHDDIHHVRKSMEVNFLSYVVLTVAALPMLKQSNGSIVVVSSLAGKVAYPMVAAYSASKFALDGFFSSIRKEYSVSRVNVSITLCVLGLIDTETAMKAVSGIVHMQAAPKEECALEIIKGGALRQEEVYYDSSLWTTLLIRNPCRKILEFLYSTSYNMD

Regarding `CC(C)(Oc1ccccc1)C(=NC#N)NC12CCC(C(N)=O)(CC1)C2` [Example 81, 4-{[N-cyano-2-methyl-2-phenoxypropanimidoyl]amino}bicyclo[2.2.1]heptane-1-carboxamide], the Ki was more than 1000 nM.
For `CC(C)(Oc1ccc(Cl)cc1)/C(=N\C#N)N[C@@H]1[C@@H]2C[C@@H]3C[C@H]1C[C@@](C#N)(C3)C2` [Example 37, (1E)-2-(4-Chlorophenoxy)-N′-cyano-N-[(E)-5-cyano-2-adamantyl]-2-methylpropanimidamide], the Ki lay within 10 to 100 nM.
On to `N#CN=C(Cc1ccc(F)cc1F)NC1C2CC3CC1CC(O)(C3)C2` (stereo not drawn) [Example 4, (1E)-N′-Cyano-2-(2,4-difluorophenyl)-N-[(E)-5-hydroxy-2-adamantyl]ethanimidamide], for which the Ki is more than 1000 nM.
The value for `CC(C)(Oc1ccccc1)C(=NC#N)NC12CCC(C(N)=O)(CC1)CC2` [Example 82, 4-{[N-cyano-2-methyl-2-phenoxypropanimidoyl]amino}bicyclo[2.2.2]octane-1-carboxamide] was 10 to 100 nM; that for `CC(C)(Oc1ccc(Cl)cc1)C(=NC#N)NC12CCC(C(F)F)(CC1)CC2` [Example 85, 2-(4-chlorophenoxy)-N′-cyano-N-[4-(difluoromethyl)bicyclo[2.2.2]oct-1-yl]-2-methylpropanimidamide] was 100 to 1000 nM.
`CC(C)(Oc1ccccc1)C(=NC#N)NC12CCC(C#N)(CC1)C2` [Example 83, N′-cyano-N-(4-cyanobicyclo[2.2.1]hept-1-yl)-2-methyl-2-phenoxypropanimidamide]: the Ki lay in the range of 100 to 1000 nM.
As to `CC(C)(Oc1ccc(F)cc1F)C(=NC#N)NC1CCCCCCC1` [Example 65, N′-cyano-N-cyclooctyl-2-(2,4-difluorophenoxy)-2-methylpropanimidamide], the Ki is 100 to 1000 nM.
The value for `CC(C)(Oc1ccc(Cl)cc1F)C(=NC#N)NC12CC3CC(CC1C3)C2` [Example 73, 2-(4-chloro-2-fluorophenoxy)-Y-cyano-N-(hexahydro-2,5-methanopentalen-3a(1H)-yl)-2-methylpropanimidamide] was 100 to 1000 nM; that for `COC(=O)C12CC3CC(C1)C(NC(=NC#N)C(C)(C)Oc1ccc(Cl)cc1)C(C3)C2` (stereo not drawn) [Example 11, Methyl(E)-4-{[(1E)-2-(4-chlorophenoxy)-N-cyano-2-methylpropanimidoyl]amino}adamantane-1-carboxylate] was 100 to 1000 nM; that for `CC(C)(Cc1ccc(Cl)cc1)C(=NC#N)NC1C2CC3CC1CC(O)(C3)C2` (stereo not drawn) [Example 23, (1E)-3-(4-Chlorophenyl)-N′-cyano-N-[(E)-5-hydroxy-2-adamantyl]-2,2-dimethyl propanimidamide] was 100 to 1000 nM.
Next, `CC(C)(Oc1ccc(Cl)cc1F)/C(=N\C#N)NC1C2CC3CC1CC(C(N)=O)(C3)C2` (stereo not drawn) [Example 74, (E)-4-{[(1E)-2-(4-chloro-2-fluorophenoxy)-N-cyano-2-methylpropanimidoyl]amino}adamantane-1-carboxamide]: not above 10 nM; `CC(C)(Oc1ccc(Cl)cc1)C(=NC#N)NC12CC3CC(CC(C3)C1)C2` [Example 43]: 10 to 100 nM; `CC(C)(/C(=N\C#N)N[C@@H]1[C@@H]2C[C@@H]3C[C@H]1C[C@@](C(=O)O)(C3)C2)N1CCN(c2ccc(C(F)(F)F)cn2)CC1` [Example 30, (E)-4-[((1E)-N-Cyano-2-methyl-2-{4-[5-(trifluoromethyl)pyridin-2-yl]piperazin-1-yl}propanimidoyl)amino]adamantane-1-carboxylic acid]: more than 1000 nM.
The value for `COc1ccc(Cl)cc1C(=NC#N)N[C@@H]1[C@@H]2C[C@@H]3C[C@H]1C[C@@](O)(C3)C2` [Example 93, 5-chloro-N′-cyano-N-[(E)-5-hydroxyadamantan-2-yl]-2-methoxybenzenecarboximidamide] was more than 1000 nM.
Consider `COC(=O)C12CC3CC(C1)C(NC(=NC#N)C(C)(C)N1CC4CC(c5ccc(Cl)cc5)C4C1)C(C3)C2` (stereo not drawn) [Example 48, methyl(E)-4-({(1E)-2-[(1R*,5S*,6R*)-6-(4-chlorophenyl)-3-azabicyclo[3.2.0]hept-3-yl]-N-cyano-2-methylpropanimidoyl}amino)adamantane-1-carboxylate], for which the Ki is 100 to 1000 nM.
`CC(C)(OCc1ccc(C(F)(F)F)cc1)/C(=N\C#N)N[C@@H]1[C@@H]2C[C@@H]3C[C@H]1C[C@@](C(N)=O)(C3)C2` [Example 25, (E)-4-[((1E)-N-Cyano-2-methyl-2-{[4-(trifluoromethyl)benzyl]oxy}propanimidoyl)amino]adamantane-1-carboxamide]: the Ki lay in the range of 10 to 100 nM.
For `CC(C)(Oc1ccc(Cl)cn1)C(=NC#N)NC1C2CC3CC1CC(C#N)(C3)C2` (stereo not drawn) [Example 59, (1E)-2-[(5-chloropyridin-2-yl)oxy]-N′-cyano-N-[(E)-5-cyanoadamantan-2-yl]-2-methylpropanimidamide], the Ki lay within 100 to 1000 nM.
The value for `CC(C)(Oc1ccccc1)C(=NC#N)NC12CCC(C#N)(CC1)CC2` [Example 84, N′-cyano-N-(4-cyanobicyclo[2.2.2]oct-1-yl)-2-methyl-2-phenoxypropanimidamide] was 100 to 1000 nM; that for `COC(=O)C12CC3CC(C1)C(NC(=S)C(C)(C)N1CCN(c4ccc(C(F)(F)F)cn4)CC1)C(C3)C2` (stereo not drawn) [Example 21, Methyl(E)-4-[(2-methyl-2-{4-[5-(trifluoromethyl)pyridin-2-yl]piperazin-1-yl}propanethioyl)amino]adamantane-1-carboxylate] was 10 to 100 nM.
On to `CC(C)(Oc1ccc(F)cc1Cl)C(=S)N[C@@H]1[C@@H]2C[C@@H]3C[C@H]1C[C@@](S(C)(=O)=O)(C3)C2` [Example 12, 2-(2-Chloro-4-fluorophenoxy)-2-methyl-N-[(E)-5-(methylsulfonyl)-2-adamantyl]propanethioamide], for which the Ki lay in the range of 10 to 100 nM.
Regarding `CON=C(NC1C2CC3CC1CC(S(C)(=O)=O)(C3)C2)C(C)(C)Oc1ccc(Cl)cc1` (stereo not drawn) [Example 13, (1E)-2-(4-Chlorophenoxy)-N-methoxy-2-methyl-N-[(E)-5-(methylsulfonyl)-2-adamantyl]propanimidamide], the Ki was in the range of 100 to 1000 nM.
Regarding `COC(=O)C12CC3CC(C1)C(NC(=NC#N)C(C)(C)OCc1ccc(OC)cc1)C(C3)C2` (stereo not drawn) [Example 28, Methyl(E)-4-({(1E)-N-cyano-2-[(4-methoxybenzyl)oxy]-2-methylpropanimidoyl}amino)adamantane-1-carboxylate], the Ki was 100 to 1000 nM.
Next, `CC(C)(Oc1ccc(Cl)cc1)/C(=N\C#N)N[C@@H]1[C@@H]2C[C@@H]3C[C@H]1C[C@@](C(=O)O)(C3)C2` [Example 36, (E)-4-{[(1E)-2-(4-Chlorophenoxy)-N-cyano-2-methylpropanimidoyl]amino}adamantane-1-carboxylic acid]: 100 to 1000 nM; `Cc1ccccc1CC(=NC#N)NC1C2CC3CC1CC(O)(C3)C2` (stereo not drawn) [Example 2, (1E)-N-Cyano-N-[(E)-5-hydroxy-2-adamantyl]-2-(2-methylphenyl)ethanimidamide]: more than 1000 nM; `CC(C)(Oc1ccc(F)cc1F)/C(=N\C#N)N[C@@H]1[C@@H]2C[C@@H]3C[C@H]1C[C@@](C#N)(C3)C2` [Example 52, (1E)-N′-cyano-N-[(E)-5-cyanoadamantan-2-yl]-2-(2,4-difluorophenoxy)-2-methylpropanimidamide]: 10 to 100 nM.
As for `CC(C)(Oc1ccc(Cl)cc1)C(=S)NC1C2CC3CC1CC(S(C)(=O)=O)(C3)C2` (stereo not drawn) [Example 9, 2-(4-Chlorophenoxy)-2-methyl-N-[(E)-5-(methylsulfonyl)-2-adamantyl]propanethioamide], the Ki fell in the range of 10 to 100 nM.
`CC(C)(Oc1ccc(Cl)cc1F)C(=NC#N)NC1CC2CCC1C2` (stereo not drawn) [Example 66, N-(exo-bicyclo[2.2.1]hept-2-yl)-2-(4-chloro-2-fluorophenoxy)-N-cyano-2-methylpropanimidamide]: the Ki lay in the range of 100 to 1000 nM.
As for `N#CN=C(COc1ccc(Cl)cc1)NC1C2CC3CC1CC(O)(C3)C2` (stereo not drawn) [Example 7, (1E)-2-(4-Chlorophenoxy)-N′-cyano-N-[(E)-5-hydroxy-2-adamantyl]ethanimidamide], the Ki was more than 1000 nM.
Next, `CC(C)(Oc1ccc(Cl)cc1)C(=NC#N)NC1C2CC3CC1CC(S(N)(=O)=O)(C3)C2` (stereo not drawn) [Example 10, (1E)-N-[(E)-5-(Aminosulfonyl)-2-adamantyl]-2-(4-chlorophenoxy)-N′-cyano-2-methylpropanimidamide]: 100 to 1000 nM; `CC(C)(C(=NC#N)NC1C2CC3CC1CC(C(N)=O)(C3)C2)N1CCN(c2ccc(C(F)(F)F)cn2)CC1` (stereo not drawn) [Example 31, (E)-4-[((1E)-N-Cyano-2-methyl-2-{4-[5-(trifluoromethyl)pyridin-2-yl]piperazin-1-yl}propanimidoyl)amino]adamantane-1-carboxamide]: 100 to 1000 nM.
